{"source": "PubChem BioAssay AID1963428", "about": "(Molecular Pharmacology Branch, DTP, NCI, 2024);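 for viability, T/C: spheroids exposed to compounds for 7 days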", "system": "171881-019-R-J1-PDC complex spheroid growth, % test/control", "assay": "Anticancer human tumor 171881-019-R-J1-PDC patient-derived invasive breast carcinoma cell line growth inhibition [Asc]", "conditions": "for IC50: curve of first compound; for viability, T/C: stronger effect = lower value", "summary_of_the_method": "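Tumor cells were grown as complex spheroids with human endothelial cells (HUVEC) and human mesenchymal stem cells as stroma. Agents were tested alone and in combination, in half-log steps down from the clinical Cmax, or from 10 microM where Cmax was unknown.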", "key": {"[1]": {"conditions": "second compound 0.01 µM, first compound 0.0316 µM"}, "[2]": {"conditions": "second compound 0.01 µM, first compound 0.1 µM"}, "[3]": {"conditions": "second compound 0.01 µM, first compound 0.316 µM"}, "[4]": {"conditions": "second compound 0.01 µM, first compound 1 µM"}, "[5]": {"conditions": "second compound 0.01 µM, first compound 3.16 µM"}, "[6]": {"conditions": "second compound 0.01 µM, first compound 10 µM"}, "[7]": {"conditions": "second compound 0.0316 µM, first compound 0.0316 µM"}, "[8]": {"conditions": "second compound 0.0316 µM, first compound 0.1 µM"}, "[9]": {"conditions": "second compound 0.0316 µM, first compound 0.316 µM"}, "[10]": {"conditions": "second compound 0.0316 µM, first compound 1 µM"}, "[11]": {"conditions": "second compound 0.0316 µM, first compound 3.16 µM"}, "[12]": {"conditions": "second compound 0.0316 µM, first compound 10 µM"}, "[13]": {"conditions": "second compound 0.1 µM, first compound 0.0316 µM"}, "[14]": {"conditions": "second compound 0.1 µM, first compound 0.1 µM"}, "[15]": {"conditions": "second compound 0.1 µM, first compound 0.316 µM"}, "[16]": {"conditions": "second compound 0.1 µM, first compound 1 µM"}, "[17]": {"conditions": "second compound 0.1 µM, first compound 3.16 µM"}, "[18]": {"conditions": "second compound 0.1 µM, first compound 10 µM"}, "[19]": {"conditions": "second compound 0.316 µM, first compound 0.0316 µM"}, "[20]": {"conditions": "second compound 0.316 µM, first compound 0.1 µM"}, "[21]": {"conditions": "second compound 0.316 µM, first compound 0.316 µM"}, "[22]": {"conditions": "second compound 0.316 µM, first compound 1 µM"}, "[23]": {"conditions": "second compound 0.316 µM, first compound 3.16 µM"}, "[24]": {"conditions": "second compound 0.316 µM, first compound 10 µM"}, "[25]": {"conditions": "second compound 1 µM, first compound 0.0316 µM"}, "[26]": {"conditions": "second compound 1 µM, first compound 0.1 µM"}, "[27]": {"conditions": "second compound 1 µM, first compound 0.316 µM"}, "[28]": {"conditions": "second compound 1 µM, first compound 1 µM"}, "[29]": {"conditions": "second compound 1 µM, first compound 3.16 µM"}, "[30]": {"conditions": "second compound 1 µM, first compound 10 µM"}}, "data": [{"smiles": "C#Cc1c(F)ccc2cc(O)cc(-c3ncc4c(N5CC6CCC(C5)N6)nc(OCC56CCCN5CC(F)C6)nc4c3F)c12", "note": "(stereo not given) + CNC(C)C(=O)NC1CN(S(=O)(=O)c2cccc(S(=O)(=O)N3CCC4CCC(C(=O)NC(c5ccccc5)c5ccccc5)N4C(=O)C(NC(=O)C(C)NC)C3)c2)CCC2CCC(C(=O)NC(c3ccccc3)c3ccccc3)N2C1=O", "values": [{"measurement": "IC50", "setting": "second compound 0.01 µM", "value": "> 10", "unit": "µM"}, {"measurement": "IC50", "setting": "second compound 0.0316 µM", "value": "> 10", "unit": "µM"}, {"measurement": "IC50", "setting": "second compound 0.1 µM", "value": "> 10", "unit": "µM"}, {"measurement": "IC50", "setting": "second compound 0.316 µM", "value": "> 10", "unit": "µM"}, {"measurement": "IC50", "setting": "second compound 1 µM", "value": "> 10", "unit": "µM"}, {"measurement": "viability, T/C", "setting": "[1]", "value": 98, "unit": "%"}, {"measurement": "viability, T/C", "setting": "[2]", "value": 116, "unit": "%"}, {"measurement": "viability, T/C", "setting": "[3]", "value": 125, "unit": "%"}, {"measurement": "viability, T/C", "setting": "[4]", "value": 187, "unit": "%"}, {"measurement": "viability, T/C", "setting": "[5]", "value": 254, "unit": "%"}, {"measurement": "viability, T/C", "setting": "[6]", "value": 248, "unit": "%"}, {"measurement": "viability, T/C", "setting": "[7]", "value": 107, "unit": "%"}, {"measurement": "viability, T/C", "setting": "[8]", "value": 107, "unit": "%"}, {"measurement": "viability, T/C", "setting": "[9]", "value": 131, "unit": "%"}, {"measurement": "viability, T/C", "setting": "[10]", "value": 216, "unit": "%"}, {"measurement": "viability, T/C", "setting": "[11]", "value": 261, "unit": "%"}, {"measurement": "viability, T/C", "setting": "[12]", "value": 255, "unit": "%"}, {"measurement": "viability, T/C", "setting": "[13]", "value": 105, "unit": "%"}, {"measurement": "viability, T/C", "setting": "[14]", "value": 122, "unit": "%"}, {"measurement": "viability, T/C", "setting": "[15]", "value": 134, "unit": "%"}, {"measurement": "viability, T/C", "setting": "[16]", "value": 168, "unit": "%"}, {"measurement": "viability, T/C", "setting": "[17]", "value": 247, "unit": "%"}, {"measurement": "viability, T/C", "setting": "[18]", "value": 245, "unit": "%"}, {"measurement": "viability, T/C", "setting": "[19]", "value": 102, "unit": "%"}, {"measurement": "viability, T/C", "setting": "[20]", "value": 109, "unit": "%"}, {"measurement": "viability, T/C", "setting": "[21]", "value": 109, "unit": "%"}, {"measurement": "viability, T/C", "setting": "[22]", "value": 170, "unit": "%"}, {"measurement": "viability, T/C", "setting": "[23]", "value": 214, "unit": "%"}, {"measurement": "viability, T/C", "setting": "[24]", "value": 230, "unit": "%"}, {"measurement": "viability, T/C", "setting": "[25]", "value": 99.3, "unit": "%"}, {"measurement": "viability, T/C", "setting": "[26]", "value": 109, "unit": "%"}, {"measurement": "viability, T/C", "setting": "[27]", "value": 138, "unit": "%"}, {"measurement": "viability, T/C", "setting": "[28]", "value": 170, "unit": "%"}, {"measurement": "viability, T/C", "setting": "[29]", "value": 219, "unit": "%"}, {"measurement": "viability, T/C", "setting": "[30]", "value": 235, "unit": "%"}]}, {"smiles": "C=C(F)C(=O)N1CCN(c2nc(OCC3CCCN3C)nc3c2CCN(c2cccc4cccc(Cl)c24)C3)CC1CC#N", "note": "(stereo not given) + CNC(C)C(=O)NC1CN(S(=O)(=O)c2cccc(S(=O)(=O)N3CCC4CCC(C(=O)NC(c5ccccc5)c5ccccc5)N4C(=O)C(NC(=O)C(C)NC)C3)c2)CCC2CCC(C(=O)NC(c3ccccc3)c3ccccc3)N2C1=O", "values": [{"measurement": "IC50", "setting": "second compound 0.01 µM", "value": 5.65, "unit": "µM"}, {"measurement": "IC50", "setting": "second compound 0.0316 µM", "value": 5.51, "unit": "µM"}, {"measurement": "IC50", "setting": "second compound 0.1 µM", "value": 5.69, "unit": "µM"}, {"measurement": "IC50", "setting": "second compound 0.316 µM", "value": 5.54, "unit": "µM"}, {"measurement": "IC50", "setting": "second compound 1 µM", "value": 5.41, "unit": "µM"}, {"measurement": "viability, T/C", "setting": "[1]", "value": 93.5, "unit": "%"}, {"measurement": "viability, T/C", "setting": "[2]", "value": 91.3, "unit": "%"}, {"measurement": "viability, T/C", "setting": "[3]", "value": 95, "unit": "%"}, {"measurement": "viability, T/C", "setting": "[4]", "value": 101, "unit": "%"}, {"measurement": "viability, T/C", "setting": "[5]", "value": 113, "unit": "%"}, {"measurement": "viability, T/C", "setting": "[6]", "value": 1.9, "unit": "%"}, {"measurement": "viability, T/C", "setting": "[7]", "value": 90, "unit": "%"}, {"measurement": "viability, T/C", "setting": "[8]", "value": 88.8, "unit": "%"}, {"measurement": "viability, T/C", "setting": "[9]", "value": 76.7, "unit": "%"}, {"measurement": "viability, T/C", "setting": "[10]", "value": 112, "unit": "%"}, {"measurement": "viability, T/C", "setting": "[11]", "value": 112, "unit": "%"}, {"measurement": "viability, T/C", "setting": "[12]", "value": 0.82, "unit": "%"}, {"measurement": "viability, T/C", "setting": "[13]", "value": 95.9, "unit": "%"}, {"measurement": "viability, T/C", "setting": "[14]", "value": 97.2, "unit": "%"}, {"measurement": "viability, T/C", "setting": "[15]", "value": 100, "unit": "%"}, {"measurement": "viability, T/C", "setting": "[16]", "value": 104, "unit": "%"}, {"measurement": "viability, T/C", "setting": "[17]", "value": 107, "unit": "%"}, {"measurement": "viability, T/C", "setting": "[18]", "value": 1.02, "unit": "%"}, {"measurement": "viability, T/C", "setting": "[19]", "value": 81.3, "unit": "%"}, {"measurement": "viability, T/C", "setting": "[20]", "value": 91.1, "unit": "%"}, {"measurement": "viability, T/C", "setting": "[21]", "value": 86.1, "unit": "%"}, {"measurement": "viability, T/C", "setting": "[22]", "value": 106, "unit": "%"}, {"measurement": "viability, T/C", "setting": "[23]", "value": 111, "unit": "%"}, {"measurement": "viability, T/C", "setting": "[24]", "value": 2.51, "unit": "%"}, {"measurement": "viability, T/C", "setting": "[25]", "value": 90.3, "unit": "%"}, {"measurement": "viability, T/C", "setting": "[26]", "value": 84.6, "unit": "%"}, {"measurement": "viability, T/C", "setting": "[27]", "value": 86.5, "unit": "%"}, {"measurement": "viability, T/C", "setting": "[28]", "value": 95.5, "unit": "%"}, {"measurement": "viability, T/C", "setting": "[29]", "value": 106, "unit": "%"}, {"measurement": "viability, T/C", "setting": "[30]", "value": 1.17, "unit": "%"}]}]}
